What all share (assay type): cell-based
Data set [1] deals with human lung fibroblasts (HLF). Briefly: cAMP accumulation in HLF (HitHunter or AlphaScreen). The settings on record: for EC50 / Emax: Homo sapiens, Fibroblast; for EC50: read-out: cAMP pEC50 (converted); for Emax: read-out: cAMP Emax (% max); for cAMP response (in words): acute cAMP accumulation. On the procedure: HLF were grown to confluency in 96-well white ViewPlates, before incubation with a range of agonist concentrations, or vehicle, for 2 h at room temperature in HBSS with 5 mM HEPES, 0.1% w/v HSA, and 5 μM rolipram. […] Rolipram was excluded when measuring cAMP levels in response to PDE inhibitors. cAMP levels were measured using either HitHunter cAMP assay or AlphaScreen competition assay following manufacturer protocol, and were assessed on either a BMG LABTEK ClarioStar or a Packard EnVision plate reader. cAMP concentrations in each well were determined using a standard curve. To account for the inter-assay variation in levels of cAMP produced in each experiment, data were normalized to the maximal forskolin response.
A general note: cAMP levels reflect the balance of adenylyl cyclase and phosphodiesterase activity.

Data set [2] has as its system human lung fibroblasts (HLF). Briefly: Cell viability assay, caspase-3/7 as marker of apoptosis. Particulars: 24 h. Here is the method:
Cell viability was measured using caspase-3/7 expression as a marker of apoptosis after treatment for 24 h with test compounds. HLF were seeded overnight at 6,000 cells/well in 96-well black ViewPlates, before being starved for 24 hours in culture medium devoid of FBS. Cells were incubated for 24 hours in the presence of test compounds at the top concentrations used in the proliferation assays, or in the presence of 100 nM staurosporine to induce apoptosis.
The presence of the apoptotic marker caspase-3/7 was detected by incubating cells with 8 μM CellEvent™ Caspase-3/7 Red Detection Reagent in dPBS with 5 % FBS, for 30 minutes at 37°C. […] Images were analyzed using a multi wavelength cell scoring algorithm within the MetaXpress 5.3 software, which measures cell number using stained nuclei, and percent of these cells positive for caspase-3/7 from Cy5 readouts. To account for the inter-assay variation in levels of caspase 3/7 detected in each experiment, data were normalized to the staurosporine response.
Statistical significance across treatment groups was determined by using the one-way ANOVA with Dunnett’s multiple-comparison post hoc test.

Data set [3] relates to human lung fibroblasts (HLF). Briefly: HLF proliferation by BrdU incorporation (DELFIA), driven by FBS or PDGF. Particulars: for Emax / EC50: Homo sapiens, Fibroblast, inhibition of BrdU incorporation, NC = not calculated due to incomplete curve; for EC50: mean ± SEM; for inhibition of FBS- and PDGF-driven proliferation (in words): either stimulus. On the procedure: Proliferation of HLF was measured by incorporation of bromodeoxyuridine (BrdU). HLF were seeded overnight at 4000 cells/well in 96-well black ViewPlates, before being starved for 24 h in culture medium devoid of FBS. Proliferation was measured after incubation with a range of concentrations of FBS or PDGF, in DMEM supplemented with 0.1% w/v HSA, for 24 h.
For anti-remodelling assays using BrdU incorporation, cells were incubated for 24 h with a range of concentrations of test compounds in the presence of near maximal concentrations of FBS or PDGF in DMEM supplemented with 0.1% w/v HSA. Proliferation was assessed using the DELFIA BrdU incorporation assay kit following manufacturer protocol. Fluorescence was measured using a Packard EnVision plate reader. To account for the inter-assay variation in levels of proliferation in each experiment, data were normalized to the PDGF or FBS response.

The test system of data set [4] is human lung fibroblasts (HLF). In words: Fibroblast to myofibroblast transdifferentiation (FMT), αSMA immunofluorescence, TGFβ-driven. The settings on record: 48 h, TGFβ 0.3 ng/mL. On the procedure: To assess the differentiation of fibroblasts to the myofibroblast phenotype, immunofluorescence was used to monitor increases in α smooth muscle actin (αSMA). HLF were seeded overnight at 1000 cells/well in 384-well black clear bottom plates, before being starved for 24 h growth medium devoid of FBS.
For anti-remodelling assays using FMT, cells were incubated for 48 h with a range of concentrations of test compounds and incubated for 48 h, at 37°C, 5% CO2 in the presence of a near maximal concentration of TGFβ (0.3 ng/mL), to promote differentiation in DMEM supplemented with 0.1% w/v HSA. Following stimulation, cells were fixed in 4% paraformaldehyde, washed 3× in PBS (with Ca^2+/Mg^2+), and incubated with permeabilising blocking buffer (dPBS (with Ca^2+/Mg^2+), 10% FBS (v/v), 0.1% Triton X-100 (v/v)) for 1 h at 37°C. Wells were then washed 3× in wash buffer (Tris Buffered Saline (TBS), 0.05% (v/v) Tween-20) and incubated with mouse anti-α SMA (1:1000 dilution in permeabilising blocking buffer) for 1 h at room temperature, with gentle shaking. Following 3× wash in wash buffer, wells were incubated with blocking buffer containing Hoechst to stain for nuclear DNA (2 μM), and FITC-conjugated Affini-pure goat […] IgG (1:1000 dilution in blocking buffer) for 30 min at 37°C. Fluorescence was then quantified on a widefield ImageXpress Micro microscope, with a Plan Fluor 20X objective, DAPI filter cube (excitation 400–418 nm, emission 435–470 nm), 50 ms exposure time for nuclei, and FITC filter cube (excitation 467–498 nm, emission 513–556 nm), 200 ms exposure time for αSMA.
To quantify increases in αSMA fluorescence, a standard Multi-Wavelength Cell Scoring algorithm was used in MetaXpress 5.3 software (Molecular Devices, California, USA). To account for the inter-assay variation in levels of αSMA expression produced in each experiment, data were normalized to the response to TGFβ.

Where [5] appears, read: HLF, 2 h, room temperature, 5 μM rolipram (excluded for PDE inhibitors), mean ± SEM, at least 3 experiments, NC = not calculated due to incomplete curve.
The mark [6] stands for this setting: HLF, 2 h, percentage of the maximal forskolin response, mean ± SEM, NC = not calculated due to incomplete curve.
[7] abbreviates: 24 h, EC80 PDGF, percentage of maximal proliferation observed with PDGF, read-out: Proliferation vs PDGF Emax (% max).
Where [8] appears, read: 24 h, EC80 concentration of PDGF, read-out: Proliferation vs PDGF pEC50 (converted).
The mark [9] stands for this setting: 24 h, EC80 concentration of serum, read-out: Proliferation vs serum pEC50 (converted).
Setting [10] is: 24 h, EC80 serum, percentage of maximal proliferation observed with serum, read-out: Proliferation vs serum Emax (% max).
The mark [11] stands for this setting: HLF, 1:10 dilution of top conc 10 μM.
The mark [12] stands for this setting: HLF, top conc 10 μM, mean ± SEM, n=3.

The text below walks through data of article PMC5889558, “The inhibition of human lung fibroblast proliferation and differentiation by Gs-coupled receptors is not predicted by the magnitude of cAMP response” (Respiratory Research, 2018).

Entries after “also recorded” stand apart in the source; their conditions may differ.

Turning to `CC#CCC(C)[C@H](O)/C=C/[C@@H]1[C@H]2c3cccc(CCCC(=O)O)c3O[C@H]2C[C@H]1O` (mixture of isomers) [Beraprost], in data set [1] (setting [5]), the EC50 is 105 nM. Besides, the Emax in data set [1] (setting [6]) was 107 ± 8.99%.
Consider `CCCCC(C)(O)C/C=C/[C@H]1[C@H](O)CC(=O)[C@@H]1CCCCCCC(=O)OC` (mixture of isomers) [Misoprostol], for which the “% cells positive for caspase-3/7, 1:10 dilution” value (“% cells positive … 1:10 dilution” for short) in data set [2] (human, 1 μM) was found to be 0.55 ± 0.04%. Moreover, the “% cells positive for caspase-3/7, Top conc” value (shortened to “% cells positive … Top conc”) in data set [2] (human, 10 μM) is recorded as 0.54 ± 0.18%. Besides, the EC50 was 107 nM in data set [1] (setting [5]), 741 nM in data set [3] (setting [8]) and 182 nM in data set [3] (setting [9]). Moreover, the figures for the Emax in data set [1] (setting [6]), in data set [3] (setting [7]) and in data set [3] (setting [10]) were 52.4 ± 6.23%, 94.1 ± 1.59% and 34.7 ± 0.71%, respectively.
With `O=C(O)COc1cccc(-c2ocnc2-c2nc(-c3ccccc3)c(-c3ccccc3)o2)c1` [BMY-45778], the “cAMP pEC50” value in data set [1] (setting [5]) was 7.25 ± 0.09. Also, the “cAMP Emax (% max)” value in data set [1] (setting [6]) is recorded as 50.0 ± 4.59 % max.
With `CCCC1([C@H](O)C/C=C/[C@H]2[C@H](O)CC(=O)[C@@H]2CCCCCCC(=O)OC)CCC1` [Butaprost], the “% cells positive … 1:10 dilution” value in data set [2] (setting [11]) stood at 0.90 ± 0.39%. Also, the “% cells positive … Top conc” value in data set [2] (setting [12]) worked out at 0.80 ± 0.29%. The values for the EC50 in data set [1] (setting [5]) and in data set [3] (setting [9]) were 1550 nM and 64.6 nM, respectively. Moreover, the Emax was 8.76 ± 3.25% in data set [1] (setting [6]) and 29.1 ± 7.29% in data set [3] (setting [10]). The “maximal level of inhibition of serum-driven proliferation” value in data set [3] (BrdU, 24 h, near maximal FBS) is 29%.
In the case of `CCNC(=O)[C@H]1O[C@@H](n2cnc3c(N)nc(NCCc4ccc(CCC(=O)O)cc4)nc32)[C@H](O)[C@@H]1O` [CGS-21680], the “cAMP response (in words)” value in data set [1] (HLF) was “no detectable cAMP response”.
Take `COc1ccc(CC(C)NCC(O)c2ccc(O)c(NC=O)c2)cc1` (stereo not drawn) [Formoterol]: the “% cells positive … 1:10 dilution” value in data set [2] (HLF, 1:10 dilution of top conc 100 nM) is listed as 0.88 ± 0.48%. In addition, in data set [2] (HLF, top conc 100 nM), the “% cells positive … Top conc” value amounted to 0.67 ± 0.22%. The EC50 is 0.417 nM in data set [1] (2 h), 0.832 nM in data set [3] (setting [8]) and 0.263 nM in data set [3] (setting [9]).
Regarding `CC(C)Cn1c(=O)n(C)c(=O)c2[nH]cnc21` [IBMX], the “inhibition of TGFβ-driven FMT (in words)” value in data set [4] was “full concentration-response curves could not be established; also recorded: some inhibition of both proliferation and FMT at higher concentrations”. The “cAMP response (in words)” value in data set [1] (HLF) is on record as “no detectable cAMP accumulation; also recorded: did not observe any acute cAMP accumulation”. Further, the “inhibition of FBS- and PDGF-driven proliferation (in words)” value in data set [3] (BrdU, 24 h) is “some inhibition of both proliferation and FMT at higher concentrations”.
`CC#CCC(C)[C@H](O)/C=C/[C@@H]1[C@H]2C/C(=C/CCCC(=O)O)C[C@H]2C[C@H]1O` (stereo partly drawn) [Iloprost]: the “% cells positive … 1:10 dilution” value in data set [2] (human, 0.3 μM) is reported as 1.15 ± 0.29%. For the same molecule, the “% cells positive … Top conc” value in data set [2] (human, 3 μM) turned out to be 0.88 ± 0.08%. Besides, the EC50 in data set [1] (setting [5]) is 77.6 nM. Moreover, the Emax in data set [1] (setting [6]) was 99.5 ± 7.22%.
As to `CCc1cc2c(cc1CC)CC(NC[C@H](O)c1ccc(O)c3[nH]c(=O)ccc13)C2` [Indacaterol], in data set [2] (HLF, 1:10 dilution of top conc 1 μM), the “% cells positive … 1:10 dilution” value is given as 0.62 ± 0.15%. In addition, the “% cells positive … Top conc” value in data set [2] (HLF, top conc 1 μM) is given as 0.62 ± 0.01%. In data set [1] (HLF, % of the forskolin response), the “maximal cAMP response” value is listed as 80%. In addition, the EC50 in data set [1] (setting [5]) is 2.63 nM; in data set [3] (setting [8]), 1.45 nM; in data set [3] (setting [9]) it was 11 nM. Also, the figures for the Emax in data set [1] (setting [6]), in data set [3] (setting [7]) and in data set [3] (setting [10]) were 83.3 ± 4.47%, 90.3 ± 5.25% and 47.9 ± 1.58%, respectively.
Consider `O=C(NOC[C@H](O)CO)c1ccc(F)c(F)c1Nc1ccc(I)cc1F` [PD0325901], for which the “inhibition of PDGF-mediated proliferation (in words)” value in data set [3] (3 ng/mL PDGF) is reported as “blocked PDGF-mediated proliferation of HLF”.
Regarding `CCCCC[C@H](O)/C=C/[C@H]1[C@H](O)CC(=O)[C@@H]1C/C=C\CCCC(=O)O` [PGE2, prostaglandin E2], in data set [2] (setting [11]), the “% cells positive … 1:10 dilution” value came out at 0.53 ± 0.04%. The “% cells positive … Top conc” value in data set [2] (setting [12]) was determined as 0.68 ± 0.29%. For the same molecule, the EC50 in data set [1] (setting [5]) was 45.7 nM; in data set [3] (setting [8]), 2.51 nM; in data set [3] (setting [9]), 91.2 nM. The Emax is 85.5 ± 8.64% in data set [1] (setting [6]), 71 ± 3.86% in data set [3] (setting [7]) and 43.1 ± 6.14% in data set [3] (setting [10]).
As to `COc1ccc(C2CNC(=O)C2)cc1OC1CCCC1` (stereo not drawn) [Rolipram], in data set [4], the “inhibition of TGFβ-driven FMT (in words)” value is reported as “full concentration-response curves could not be established”. Also, the “cAMP response (in words)” value in data set [1] (HLF) is recorded as “no detectable cAMP accumulation”. Moreover, in data set [3] (BrdU, 24 h), the “inhibition of FBS- and PDGF-driven proliferation (in words)” value is “incapable of inhibiting the proliferation mediated by either stimulus”.
For `CC(C)(C)NCC(O)c1ccc(O)c(CO)c1` (stereo not drawn) [Salbutamol], the “% cells positive … 1:10 dilution” value in data set [2] (human, 1 μM) is listed as 0.53 ± 0.12%. Besides, in data set [2] (human, 10 μM), the “% cells positive … Top conc” value is 0.46 ± 0.09%. For the same molecule, the EC50 in data set [1] (setting [5]) is 43.7 nM; in data set [3] (setting [8]) it was 10.5 nM; in data set [3] (setting [9]), 91.2 nM. Besides, the Emax was 68.9 ± 1.4% in data set [1] (setting [6]), 69.2 ± 5.53% in data set [3] (setting [7]) and 32.4 ± 5.84% in data set [3] (setting [10]).
On to `CN[C@@H]1C[C@H]2O[C@@](C)([C@@H]1OC)n1c3ccccc3c3c4c(c5c6ccccc6n2c5c31)C(=O)NC4` [Staurosporine], for which the “% cells positive … Top conc” value in data set [2] (HLF, top conc 100 nM) amounted to 54.8 ± 13.6%. The “caspase-3/7 expression / apoptosis (in words)” value in data set [2] (HLF, one-way ANOVA with Dunnett's test) is “statistically significant cell apoptosis”.
